From patent publication US20100105655A1, “NOVEL COMPOUNDS 515” (ASTRAZENECA AB, priority 2008, published 2010)

Molecular target: T1, IGFR kinase (Homo sapiens, UniProt P08069)
T1 construct: purchased Millipore
Assay: Enzyme assay (c), IGFR kinase, Caliper LabChip
Format: biochemical
Conditions: 30 nM IGFR kinase, 6 uM ATP, 3 uM peptide mix; read-out: IGFR IC50

T1 sequence (P08069 31-1367): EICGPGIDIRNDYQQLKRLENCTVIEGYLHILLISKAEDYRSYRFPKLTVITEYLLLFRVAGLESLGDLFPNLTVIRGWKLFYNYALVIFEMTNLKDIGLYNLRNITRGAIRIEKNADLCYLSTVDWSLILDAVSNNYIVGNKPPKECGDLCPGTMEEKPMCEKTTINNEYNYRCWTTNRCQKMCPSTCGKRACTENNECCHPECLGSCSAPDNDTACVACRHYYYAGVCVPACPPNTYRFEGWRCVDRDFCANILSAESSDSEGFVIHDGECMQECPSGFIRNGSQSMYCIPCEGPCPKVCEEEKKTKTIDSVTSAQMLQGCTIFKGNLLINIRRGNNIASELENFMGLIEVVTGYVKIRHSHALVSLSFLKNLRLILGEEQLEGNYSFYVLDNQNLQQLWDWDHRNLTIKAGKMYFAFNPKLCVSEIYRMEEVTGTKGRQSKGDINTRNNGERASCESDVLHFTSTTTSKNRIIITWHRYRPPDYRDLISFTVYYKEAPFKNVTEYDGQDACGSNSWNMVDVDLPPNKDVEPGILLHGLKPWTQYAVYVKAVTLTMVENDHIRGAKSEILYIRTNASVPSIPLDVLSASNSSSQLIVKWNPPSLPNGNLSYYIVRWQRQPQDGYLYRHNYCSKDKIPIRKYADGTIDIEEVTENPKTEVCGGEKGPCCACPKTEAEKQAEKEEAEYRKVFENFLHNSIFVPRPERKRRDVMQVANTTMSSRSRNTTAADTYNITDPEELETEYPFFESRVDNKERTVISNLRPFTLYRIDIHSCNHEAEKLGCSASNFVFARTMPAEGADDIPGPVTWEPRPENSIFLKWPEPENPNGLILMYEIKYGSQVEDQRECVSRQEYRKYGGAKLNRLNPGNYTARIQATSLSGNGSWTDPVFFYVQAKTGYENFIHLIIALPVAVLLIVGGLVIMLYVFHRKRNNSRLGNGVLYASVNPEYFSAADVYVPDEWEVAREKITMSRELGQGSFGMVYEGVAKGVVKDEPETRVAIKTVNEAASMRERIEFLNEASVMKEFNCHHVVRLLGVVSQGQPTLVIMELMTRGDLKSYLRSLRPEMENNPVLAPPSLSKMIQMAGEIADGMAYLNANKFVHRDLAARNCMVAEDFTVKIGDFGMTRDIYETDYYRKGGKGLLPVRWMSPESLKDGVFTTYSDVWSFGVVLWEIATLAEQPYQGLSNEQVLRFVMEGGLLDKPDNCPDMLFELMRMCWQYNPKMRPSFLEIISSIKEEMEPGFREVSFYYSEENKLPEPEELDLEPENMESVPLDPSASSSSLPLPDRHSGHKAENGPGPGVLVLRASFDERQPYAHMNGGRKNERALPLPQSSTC

Row | IC50 [nM] | Structure (SMILES)
1 | 16 | COc1cc(N2CCN(C(CO)CO)CC2)ccc1Nc1ncc(C)c(-c2cnc3ccccn23)n1 [Example 269, 2-[4-[4-[(4-imidazo[1,2-a]pyridin-3-yl-5-methyl-pyrimidin-2-yl)amino]-3-methoxy-phenyl]piperazin-1-yl]propane-1,3-diol]
2 | 4 | COc1cc(C2CCN(C(=O)[C@@H](C)O)CC2)ccc1Nc1ncc(Cl)c(-c2cnc3ccc(F)cn23)n1 [Example 246, (2R)-1-[4-[4-[[5-chloro-4-(6-fluoroimidazo[1,2-a]pyridin-3-yl)pyrimidin-2-yl]amino]-3-methoxyphenyl]-1-piperidyl]-2-hydroxy-propan-1-one]
3 | 8 | COc1cc(N2CCN(CCO)CC2)c(C)cc1Nc1ncc(Cl)c(-c2cnc3ccccn23)n1 [Example 279, 2-[4-[4-[(5-chloro-4-imidazo[1,2-a]pyridin-3-yl-pyrimidin-2-yl)amino]-5-methoxy-2-methyl-phenyl]piperazin-1-yl]ethanol]
4 | 120 | COc1cc2c(cc1Nc1ncc(Cl)c(-c3cnn4ccccc34)n1)NCC2 [Example 155, N-(5-chloro-4-pyrazolo[1,5-a]pyridin-3-yl-pyrimidin-2-yl)-5-methoxy-indolin-6-amine]
5 | 270 | COc1cc(N2CCN(CCO)[C@H](C)C2)ccc1Nc1ncc(F)c(-c2cnc3ccccn23)n1 [Example 272, 2-[(2R)-4-[4-[(5-fluoro-4-imidazo[1,2-a]pyridin-3-yl-pyrimidin-2-yl)amino]-3-methoxy-phenyl]-2-methyl-piperazin-1-yl]ethanol]
6 | 43 | COCCN1CCN(c2ccc(Nc3ncc(F)c(-c4cnc5ccccn45)n3)c(OC)c2)CC1 [Example 82, 5-fluoro-4-imidazo[1,2-a]pyridin-3-yl-N-[2-methoxy-4-[4-(2-methoxyethyl)piperazin-1-yl]phenyl]pyrimidin-2-amine]
7 | 21 | COc1cc(C(=O)N2C[C@@H]3C[C@H]2CN3C)ccc1Nc1ncc(Cl)c(-c2cnc3ccccn23)n1 [Example 31, [4-[(5-chloro-4-imidazo[1,2-a]pyridin-3-yl-pyrimidin-2-yl)amino]-3-methoxy-phenyl]-[(1S,4S)-5-methyl-2,5-diazabicyclo[2.2.1]heptan-2-yl]methanone]
8 | 13 | COc1cc(N2CCN(C(=O)N3CCOCC3)CC2)ccc1Nc1ncc(Cl)c(-c2cnc3ccccn23)n1 [Example 46, [4-[4-[(5-chloro-4-imidazo[1,2-a]pyridin-3-yl-pyrimidin-2-yl)amino]-3-methoxy-phenyl]piperazin-1-yl]-morpholino-methanone]
9 | 20 | COc1cc(OC2CCN(S(C)(=O)=O)CC2)ccc1Nc1ncc(Cl)c(-c2cnc3ccccn23)n1 [Example 8, 5-chloro-4-imidazo[1,2-a]pyridin-3-yl-N-[2-methoxy-4-[(1-methylsulfonyl-4-piperidyl)oxy]phenyl]pyrimidin-2-amine]
10 | 9 | COc1cc(N2CC3CN(C(C)=O)CC(C2)O3)ccc1Nc1ncc(Cl)c(-c2cnc3c(F)cccn23)n1 [Example 215, 1-[3-[4-[[5-chloro-4-(8-fluoroimidazo[1,2-a]pyridin-3-yl)pyrimidin-2-yl]amino]-3-methoxy-phenyl]-9-oxa-3,7-diazabicyclo[3.3.1]nonan-7-yl]ethanone]
11 | 33 | COc1cc(N2CCN(CCO)CC2)ccc1Nc1ncc(F)c(-c2cnc3c(F)cccn23)n1 [Example 195, 2-[4-[4-[[5-fluoro-4-(8-fluoroimidazo[1,2-a]pyridin-3-yl)pyrimidin-2-yl]amino]-3-methoxy-phenyl]piperazin-1-yl]ethanol]
12 | 15 | COc1cc(C(CO)CNC(C)=O)ccc1Nc1ncc(Cl)c(-c2cnc3ccccn23)n1 (centres unmarked) [Example 276, N-[2-[4-[(5-chloro-4-imidazo[1,2-a]pyridin-3-yl-pyrimidin-2-yl)amino]-3-methoxy-phenyl]-3-hydroxy-propyl]acetamide]
13 | 34 | COc1cc(N2CC[C@@H](O)C2)ccc1Nc1ncc(F)c(-c2cnc3ccccn23)n1 [Example 85, (3R)-1-[4-[(5-fluoro-4-imidazo[1,2-a]pyridin-3-yl-pyrimidin-2-yl)amino]-3-methoxy-phenyl]pyrrolidin-3-ol]
14 | 27 | COc1cc(N2CCN(C[C@@H](O)CO)CC2)ccc1Nc1ncc(C)c(-c2cnc3ccccn23)n1 [Example 267, (2R)-3-[4-[4-[(4-imidazo[1,2-a]pyridin-3-yl-5-methyl-pyrimidin-2-yl)amino]-3-methoxy-phenyl]piperazin-1-yl]propane-1,2-diol]
15 | 3 | COc1cc(C2CCNCC2)ccc1Nc1ncc(Cl)c(-c2cnc3ccc(F)cn23)n1 [Example 247, 5-chloro-4-(6-fluoroimidazo[1,2-a]pyridin-3-yl)-N-[2-methoxy-4-(4-piperidyl)phenyl]pyrimidin-2-amine]
16 | 5 | COc1cc(N2CCN(C(=O)[C@@H](N)CO)CC2)ccc1Nc1ncc(Cl)c(-c2cnc3ccccn23)n1 [Example 24.7, (2S)-2-amino-1-[4-[4-[(5-chloro-4-imidazo[1,2-a]pyridin-3-yl-pyrimidin-2-yl)amino]-3-methoxy-phenyl]piperazin-1-yl]-3-hydroxy-propan-1-one]

Row | IC50 [nM] | Structure (SMILES)
17 | 30 | COc1cc(CN2CCN(C)CC2)ccc1Nc1ncc(Cl)c(-c2cnc3ccccn23)n1 [Example 21.4, 5-chloro-4-imidazo[1,2-a]pyridin-3-yl-N-[2-methoxy-4-[(4-methylpiperazin-1-yl)methyl]phenyl]pyrimidin-2-amine]
18 | 16 | COc1cc(C2CCN(C(=O)CO)CC2)ccc1Nc1ncc(C)c(-c2cnn3ccccc23)n1 [Example 163, 2-hydroxy-1-[4-[3-methoxy-4-[(5-methyl-4-pyrazolo[1,5-a]pyridin-3-yl-pyrimidin-2-yl)amino]phenyl]-1-piperidyl]ethanone]
19 | 21 | COc1cc(OC2CN(C[C@H](C)O)C2)ccc1Nc1ncc(Cl)c(-c2cnc3ccccn23)n1 [Example 61, (2S)-1-[3-[4-[(5-chloro-4-imidazo[1,2-a]pyridin-3-yl-pyrimidin-2-yl)amino]-3-methoxy-phenoxy]azetidin-1-yl]propan-2-ol]
20 | 125 | COc1ccc(N2CC[C@H](N(C)C)C2)cc1Nc1ncc(Cl)c(-c2cnc3ccccn23)n1 [Example 3.17, 5-chloro-N-[5-[(3S)-3-dimethylaminopyrrolidin-1-yl]-2-methoxy-phenyl]-4-imidazo[1,2-a]pyridin-3-yl-pyrimidin-2-amine]
21 | 7 | COc1cc(N2CCN(C(=O)CO)CC2)ccc1Nc1ncc(Cl)c(-c2cnc3c(F)cc(F)cn23)n1 [Example 250, 1-[4-[4-[[5-chloro-4-(6,8-difluoroimidazo[1,2-a]pyridin-3-yl)pyrimidin-2-yl]amino]-3-methoxy-phenyl]piperazin-1-yl]-2-hydroxy-ethanone]
22 | 19 | COc1cc(CNCCO)ccc1Nc1ncc(Cl)c(-c2cnc3ccccn23)n1 [Example 21.1, 2-[[4-[(5-chloro-4-imidazo[1,2-a]pyridin-3-yl-pyrimidin-2-yl)amino]-3-methoxy-phenyl]methylamino]ethanol]
23 | 9 | COc1cc(N2CCN(C(=O)CN3CCOCC3)CC2)ccc1Nc1ncc(Cl)c(-c2cnc3ccccn23)n1 [Example 275, 1-[4-[4-[(5-chloro-4-imidazo[1,2-a]pyridin-3-yl-pyrimidin-2-yl)amino]-3-methoxy-phenyl]piperazin-1-yl]-2-morpholino-ethanone]
24 | 7 | COc1cc(C2CCNC(C)C2)ccc1Nc1ncc(Cl)c(-c2cnc3ccccn23)n1 (centres unmarked) [Example 59.2, 5-chloro-4-imidazo[1,2-a]pyridin-3-yl-N-[2-methoxy-4-(2-methyl-4-piperidyl)phenyl]pyrimidin-2-amine]
25 | 14 | COc1cc(O[C@H]2CCNC2)ccc1Nc1ncc(Cl)c(-c2cnc3ccccn23)n1 [Example 6.6, 5-chloro-4-imidazo[1,2-a]pyridin-3-yl-N-[2-methoxy-4-[(3S)-pyrrolidin-3-yl]oxy-phenyl]pyrimidin-2-amine]
26 | 29 | COc1cc(N2CCN(C[C@H](C)O)CC2)ccc1Nc1ncc(C)c(-c2cnc3ccccn23)n1 [Example 104, (2S)-1-[4-[4-[(4-imidazo[1,2-a]pyridin-3-yl-5-methyl-pyrimidin-2-yl)amino]-3-methoxy-phenyl]piperazin-1-yl]propan-2-ol]
27 | 11 | COc1cc(N2CCN(CCO)CC2)ccc1Nc1ncc(C)c(-c2cnn3ccccc23)n1 [Example 161, 2-[4-[3-methoxy-4-[(5-methyl-4-pyrazolo[1,5-a]pyridin-3-yl-pyrimidin-2-yl)amino]phenyl]piperazin-1-yl]ethanol]
28 | 11 | COc1cc(N2CCNC(C(=O)N(C)C)C2)ccc1Nc1ncc(Cl)c(-c2cnc3ccccn23)n1 (centres unmarked) [Example 19, 4-[4-[(5-chloro-4-imidazo[1,2-a]pyridin-3-yl-pyrimidin-2-yl)amino]-3-methoxy-phenyl]-N,N-dimethyl-piperazine-2-carboxamide]
29 | 1 | CNCC(=O)N1CCC(c2ccc(Nc3ncc(Cl)c(-c4cnc5c(F)cccn45)n3)c(OC)c2)CC1 [Example 182, 1-[4-[4-[[5-chloro-4-(8-fluoroimidazo[1,2-a]pyridin-3-yl)pyrimidin-2-yl]amino]-3-methoxy-phenyl]-1-piperidyl]-2-(methylamino)ethanone]
30 | 57 | COc1cc(C(=O)N(C)CCO)ccc1Nc1ncc(Cl)c(-c2cnc3ccccn23)n1 [Example 33, 4-[(5-chloro-4-imidazo[1,2-a]pyridin-3-yl-pyrimidin-2-yl)amino]-N-(2-hydroxyethyl)-3-methoxy-N-methyl-benzamide]
31 | 42 | COc1ccc(C2CCNCC2)cc1Nc1ncc(F)c(-c2cnc3ccccn23)n1 [Example 112, 5-fluoro-4-imidazo[1,2-a]pyridin-3-yl-N-[2-methoxy-5-(4-piperidyl)phenyl]pyrimidin-2-amine]
32 | 15 | COc1cc(N2CCN(C(=O)[C@@H](C)O)CC2)ccc1Nc1ncc(Cl)c(-c2cnc3c(F)cccn23)n1 [Example 178, (2R)-1-[4-[4-[[5-chloro-4-(8-fluoroimidazo[1,2-a]pyridin-3-yl)pyrimidin-2-yl]amino]-3-methoxy-phenyl]piperazin-1-yl]-2-hydroxy-propan-1-one]
